ChEMBL document CHEMBL1129248, “7-[3-(1-piperidinyl)propoxy]chromenones as potential atypical antipsychotics” (1996)

What was measured:
Mus musculus [1] = assay: Inhibition of apomorphine-induced Hyperactivity in mice, after Intraperitoneal administration; type: functional; details: ip
Rattus norvegicus [2] = assay: Percent inhibition of apomorphine-induced stereotypy in rat after an intraperitoneal dose of 50 mg/kg; type: functional; details: ip
Mus musculus [3] = assay: Inhibition of apomorphine-induced climbing behavior in mice, after peroral administration; type: functional; details: po
[4] = Inhibition of apomorphine-induced climbing behavior in mice, after intraperitoneal administration; type: functional; details: Mus musculus, ip
[5] = Inhibition of apomorphine-induced hyperactivity in mice after peroral administration; type: functional; details: Mus musculus, po
Rattus norvegicus [6] = assay: Dose required to induce 50% maximum catalepsy in rat administered perorally; type: functional; details: po
Rattus norvegicus [7] = assay: Inhibition of apomorphine-induced stereotypy in rat, after peroral administration; type: functional; details: po
[8] = Inhibition of apomorphine-induced hyperactivity behavior in mice, after peroral administration; type: functional; details: Mus musculus, po
[9] = (§1) Inhibition of apomorphine-induced climbing behavior in mice, after Intraperitoneal administration; type: functional; details: Mus musculus, ip
Mus musculus [10] = assay: Inhibition of apomorphine-induced hyperactivity in mice, after peroral administration; type: functional; details: po
Rattus norvegicus [11] = assay: Inhibition of apomorphine-induced stereotypy in rat after peroral administration; type: functional; details: po
Rattus norvegicus [12] = species: Rattus norvegicus; assay: Dose required to induce 50% maximum catalepsy in rat; type: functional
Mus musculus [13] = assay: Inhibition of apomorphine-induced hyperactivity in mice, after peroral administration; details: po
Rattus norvegicus [14] = assay: Inhibition of apomorphine-induced stereotypy in Rat, after peroral administration; type: functional; details: po
Mus musculus [15] = assay: as §1; type: functional; details: ip
Rattus norvegicus [16] = species: Rattus norvegicus; assay: Dose required to induce 50% maximum catalepsy in rat

## CC1CN(C(=O)c2ccc(F)cc2)CCN1CCCC(=O)c1ccc(F)cc1 (configuration not stated)
Mus musculus [1]
  ED50: > 50 mg/kg
Rattus norvegicus [2]
  inhibition in vivo at 50 mg/kg: 22%
Mus musculus [3]
  ED50: > 200 mg/kg
[4]
  ED50: > 50 mg/kg
[5]
  ED50: > 200 mg/kg

## CC1CN(Cc2ccc(F)cc2)CCN1CCCC(=O)c1ccc(F)cc1 (configuration not stated)
Mus musculus [1]
  ED50: 45 mg/kg
Rattus norvegicus [2]
  inhibition in vivo at 50 mg/kg: 19%
Mus musculus [3]
  ED50: > 200 mg/kg
[4]
  ED50: > 50 mg/kg
[5]
  ED50: > 200 mg/kg

## O=C(c1ccc(F)cc1)C1CCN(CCCOc2ccc3c(=O)c(CO)coc3c2)CC1
Rattus norvegicus [6]
  ED50: 14 mg/kg
Rattus norvegicus [7]
  ED50: 35.9 mg/kg
[8]
  ED50: 1.32 mg/kg

## O=C(CCCN1CCC(Cc2ccccc2)CC1)c1ccc(F)cc1
Mus musculus [1]
  ED50: 12.3 mg/kg
Rattus norvegicus [2]
  inhibition in vivo at 50 mg/kg: 46%
Mus musculus [3]
  ED50: 15.2 mg/kg
[4]
  ED50: 2.85 mg/kg

## O=C(c1ccc(F)cc1)C1CCN(CCCOc2ccc(F)cc2)CC1
[9]
  ED50: 1.82 mg/kg
Mus musculus [1]
  ED50: 1.15 mg/kg
Mus musculus [3]
  ED50: 4.3 mg/kg
[5]
  ED50: 4.9 mg/kg

## CC1CN(Cc2ccccc2)CCN1CCCC(O)c1ccc(F)cc1 (configuration not stated)
Mus musculus [1]
  ED50: 35 mg/kg
Rattus norvegicus [2]
  inhibition in vivo at 50 mg/kg: 16%
Mus musculus [3]
  ED50: > 200 mg/kg
[4]
  ED50: > 50 mg/kg
[5]
  ED50: > 200 mg/kg

## CC1CN(Cc2ccc(F)cc2)CCN1CCCC(O)c1ccc(F)cc1 (configuration not stated)
Mus musculus [1]
  ED50: 50 mg/kg
Rattus norvegicus [2]
  inhibition in vivo at 50 mg/kg: 48%
Mus musculus [3]
  ED50: > 200 mg/kg
[4]
  ED50: 30 mg/kg
[5]
  ED50: > 200 mg/kg

## CC1CN(C(=O)c2ccc(F)cc2)CCN1CCCC(O)c1ccc(F)cc1 (configuration not stated)
Mus musculus [1]
  ED50: > 50 mg/kg
Rattus norvegicus [2]
  inhibition in vivo at 50 mg/kg: 0%
Mus musculus [3]
  ED50: > 200 mg/kg
[4]
  ED50: > 50 mg/kg
[5]
  ED50: > 200 mg/kg

## CC1CN(Cc2ccccc2)CCN1CCCC(=O)c1ccc(F)cc1 (configuration not stated)
Mus musculus [10]
  ED50: > 200 mg/kg
Mus musculus [1]
  ED50: 30 mg/kg
Rattus norvegicus [2]
  inhibition in vivo at 50 mg/kg: 30%
Mus musculus [3]
  ED50: > 200 mg/kg
[4]
  ED50: 28.2 mg/kg

## CN1CCN(C2=Nc3cc(Cl)ccc3Nc3ccccc32)CC1 [CLOZAPINE]
Rattus norvegicus [11]
  ED50: 85.3 mg/kg
[9]
  ED50: 7.7 mg/kg
Rattus norvegicus [12]
  ED50: 107 mg/kg
Mus musculus [13]
  ED50: 11 mg/kg

## O=C(CCCN1CCC(O)(c2ccc(Cl)cc2)CC1)c1ccc(F)cc1 [HALOPERIDOL]
[9]
  ED50: 0.21 mg/kg
Rattus norvegicus [12]
  ED50: 2.5 mg/kg
Mus musculus [13]
  ED50: 0.56 mg/kg
Rattus norvegicus [14]
  ED50: 1.95 mg/kg

## CCN1CCC[C@H]1CNC(=O)c1c(OC)ccc(Br)c1OC [REMOXIPRIDE]
Rattus norvegicus [6]
  ED50: 64.3 mg/kg
Rattus norvegicus [7]
  ED50: 48.7 mg/kg
[4]
  ED50: 5.2 mg/kg
[8]
  ED50: 11.1 mg/kg

## Cc1nc2n(c(=O)c1CCN1CCC(c3noc4cc(F)ccc34)CC1)CCCC2 [RISPERIDONE]
Mus musculus [15]
  ED50: 0.2 mg/kg
Mus musculus [3]
  ED50: 0.74 mg/kg
Rattus norvegicus [16]
  ED50: 5 mg/kg
Rattus norvegicus [14]
  ED50: 3.8 mg/kg
